Laboratory results as given in PubChem BioAssay (NCI).
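Step 1: Grow cells in 96-well plates. Step 2: Expose to compound for 48 hours at 5 concentrations. Step 3: Interpolate endpoints linearly; if unreached, use highest concentration. TGI denotes the concentration required for complete inhibition of growth.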

Legend:
Assay in all cases: DTP human tumour cell line panel, 48 h
786-0 renal = system: 786-0 renal
A549 NSCLC = system: A549 NSCLC
BT-549 breast = system: BT-549 breast
CAKI-1 renal = system: CAKI-1 renal
COLO 205 colon = system: COLO 205 colon
DU-145 prostate = system: DU-145 prostate
EKVX NSCLC = system: EKVX NSCLC
HCC-2998 colon = system: HCC-2998 colon
HCT-116 colon = system: HCT-116 colon
HCT-15 colon = system: HCT-15 colon
HOP-62 NSCLC = system: HOP-62 NSCLC
HOP-92 NSCLC = system: HOP-92 NSCLC
HS 578T breast = system: HS 578T breast
HT29 colon = system: HT29 colon
IGROV1 ovarian = system: IGROV1 ovarian
K-562 leukemia = system: K-562 leukemia
KM12 colon = system: KM12 colon
M14 melanoma = system: M14 melanoma
MALME-3M melanoma = system: MALME-3M melanoma
MCF7 breast = system: MCF7 breast
MDA-MB-231 breast = system: MDA-MB-231 breast
MDA-MB-435 = system: MDA-MB-435
MDA-N = system: MDA-N
MOLT-4 leukemia = system: MOLT-4 leukemia
NCI-H226 lung = system: NCI-H226 lung
NCI-H23 lung = system: NCI-H23 lung
NCI-H460 lung = system: NCI-H460 lung
NCI-H522 lung = system: NCI-H522 lung
NCI/ADR-RES ovarian = system: NCI/ADR-RES ovarian
OVCAR-3 ovarian = system: OVCAR-3 ovarian
OVCAR-5 ovarian = system: OVCAR-5 ovarian
OVCAR-8 ovarian = system: OVCAR-8 ovarian
PC-3 prostate = system: PC-3 prostate
RPMI-8226 leukemia = system: RPMI-8226 leukemia
RXF 393 renal = system: RXF 393 renal
SF-268 CNS = system: SF-268 CNS
SF-295 CNS = system: SF-295 CNS
SF-539 CNS = system: SF-539 CNS
SK-MEL-2 melanoma = system: SK-MEL-2 melanoma
SK-MEL-28 melanoma = system: SK-MEL-28 melanoma
SK-MEL-5 melanoma = system: SK-MEL-5 melanoma
SK-OV-3 ovarian = system: SK-OV-3 ovarian
SN12C renal = system: SN12C renal
SNB-19 CNS = system: SNB-19 CNS
SR leukemia = system: SR leukemia
SW-620 colon = system: SW-620 colon
T-47D breast = system: T-47D breast
TK-10 renal = system: TK-10 renal
U251 CNS = system: U251 CNS
UACC-257 melanoma = system: UACC-257 melanoma
UACC-62 melanoma = system: UACC-62 melanoma
UO-31 renal = system: UO-31 renal
ACHN renal = system: ACHN renal
CCRF-CEM leukemia = system: CCRF-CEM leukemia
LOX IMVI melanoma = system: LOX IMVI melanoma
OVCAR-4 ovarian = system: OVCAR-4 ovarian
SNB-75 CNS = system: SNB-75 CNS

`S=C1N(/N=C/c2c3ccccc3cc3ccccc23)C(=Nc2ccccc2)C(=Nc2ccccc2)N1c1ccccc1` gave a TGI (786-0 renal) greater than 100 µM, a TGI (A549 NSCLC) greater than 100 µM and a TGI (BT-549 breast) greater than 100 µM. For the same molecule, the TGI (CAKI-1 renal) was greater than 100 µM, the TGI (COLO 205 colon) was greater than 100 µM and the TGI (DU-145 prostate) was greater than 100 µM. The TGI (EKVX NSCLC) was greater than 100 µM, the TGI (HCC-2998 colon) was greater than 100 µM and the TGI (HCT-116 colon) was greater than 100 µM. The TGI (HCT-15 colon) was greater than 100 µM, the TGI (HOP-62 NSCLC) was greater than 100 µM and the TGI (HOP-92 NSCLC) was greater than 100 µM. The TGI (HS 578T breast) was greater than 100 µM, the TGI (HT29 colon) was greater than 100 µM and the TGI (IGROV1 ovarian) was greater than 100 µM. It also gave a TGI (K-562 leukemia) greater than 100 µM, a TGI (KM12 colon) greater than 100 µM and a TGI (M14 melanoma) greater than 100 µM. The TGI (MALME-3M melanoma) was greater than 100 µM, the TGI (MCF7 breast) was greater than 100 µM and the TGI (MDA-MB-231 breast) was greater than 100 µM. It also gave a TGI (MDA-MB-435) greater than 100 µM, a TGI (MDA-N) greater than 100 µM and a TGI (MOLT-4 leukemia) greater than 100 µM. The TGI (NCI-H226 lung) was greater than 100 µM, the TGI (NCI-H23 lung) was greater than 100 µM and the TGI (NCI-H460 lung) was greater than 100 µM. The TGI (NCI-H522 lung) was greater than 100 µM, the TGI (NCI/ADR-RES ovarian) was greater than 100 µM and the TGI (OVCAR-3 ovarian) was greater than 100 µM. It also gave a TGI (OVCAR-5 ovarian) greater than 100 µM, a TGI (OVCAR-8 ovarian) greater than 100 µM and a TGI (PC-3 prostate) greater than 100 µM. It also gave a TGI (RPMI-8226 leukemia) greater than 100 µM, a TGI (RXF 393 renal) greater than 100 µM and a TGI (SF-268 CNS) greater than 100 µM. For the same molecule, the TGI (SF-295 CNS) was greater than 100 µM, the TGI (SF-539 CNS) was greater than 100 µM and the TGI (SK-MEL-2 melanoma) was greater than 100 µM. For the same molecule, the TGI (SK-MEL-28 melanoma) was greater than 100 µM, the TGI (SK-MEL-5 melanoma) was greater than 100 µM and the TGI (SK-OV-3 ovarian) was greater than 100 µM. The TGI (SN12C renal) was greater than 100 µM, the TGI (SNB-19 CNS) was greater than 100 µM and the TGI (SR leukemia) was greater than 100 µM. It also gave a TGI (SW-620 colon) greater than 100 µM, a TGI (T-47D breast) greater than 100 µM and a TGI (TK-10 renal) greater than 100 µM. It also gave a TGI (U251 CNS) greater than 100 µM, a TGI (UACC-257 melanoma) greater than 100 µM and a TGI (UACC-62 melanoma) greater than 100 µM. The TGI (UO-31 renal) was greater than 100 µM.

For `Cc1ccc(/C=C/c2nnc(N/N=C/c3ccc4c(c3)OCO4)[nH]c2=O)cc1`, the TGI (786-0 renal) was 27.9 µM, the TGI (A549 NSCLC) was greater than 100 µM and the TGI (ACHN renal) was 65.6 µM. It also gave a TGI (BT-549 breast) of 33.9 µM, a TGI (CAKI-1 renal) of 91.8 µM and a TGI (CCRF-CEM leukemia) of 45.4 µM. For the same molecule, the TGI (COLO 205 colon) was greater than 100 µM, the TGI (DU-145 prostate) was 38.7 µM and the TGI (EKVX NSCLC) was greater than 100 µM. For the same molecule, the TGI (HCC-2998 colon) was 79.8 µM, the TGI (HCT-116 colon) was 45.9 µM and the TGI (HCT-15 colon) was greater than 100 µM. It also gave a TGI (HOP-62 NSCLC) of 33.7 µM, a TGI (HS 578T breast) of 34.6 µM and a TGI (HT29 colon) of 53.7 µM. For the same molecule, the TGI (IGROV1 ovarian) was 41.8 µM, the TGI (K-562 leukemia) was 70.7 µM and the TGI (KM12 colon) was 46.9 µM. It also gave a TGI (LOX IMVI melanoma) of 37.7 µM, a TGI (M14 melanoma) greater than 100 µM and a TGI (MALME-3M melanoma) greater than 100 µM. The TGI (MCF7 breast) was 51.2 µM, the TGI (MDA-MB-231 breast) was 29.9 µM and the TGI (MDA-MB-435) was greater than 100 µM. It also gave a TGI (MDA-N) of 62.4 µM, a TGI (MOLT-4 leukemia) greater than 100 µM and a TGI (NCI-H226 lung) of 72.5 µM. The TGI (NCI-H23 lung) was 32.5 µM, the TGI (NCI-H460 lung) was 57.6 µM and the TGI (NCI-H522 lung) was greater than 100 µM. The TGI (NCI/ADR-RES ovarian) was 37.5 µM, the TGI (OVCAR-3 ovarian) was 36.2 µM and the TGI (OVCAR-4 ovarian) was 36.8 µM. It also gave a TGI (OVCAR-5 ovarian) greater than 100 µM, a TGI (OVCAR-8 ovarian) of 34.7 µM and a TGI (PC-3 prostate) of 43.3 µM. For the same molecule, the TGI (RPMI-8226 leukemia) was greater than 100 µM, the TGI (RXF 393 renal) was greater than 100 µM and the TGI (SF-268 CNS) was 33.9 µM. The TGI (SF-295 CNS) was greater than 100 µM, the TGI (SF-539 CNS) was 42.4 µM and the TGI (SK-MEL-2 melanoma) was 78.9 µM. The TGI (SK-MEL-28 melanoma) was 30.9 µM, the TGI (SK-MEL-5 melanoma) was greater than 100 µM and the TGI (SK-OV-3 ovarian) was 93.2 µM. For the same molecule, the TGI (SN12C renal) was 38.1 µM, the TGI (SNB-19 CNS) was 37.4 µM and the TGI (SNB-75 CNS) was 31.2 µM. For the same molecule, the TGI (SR leukemia) was 40.9 µM, the TGI (SW-620 colon) was 42.6 µM and the TGI (T-47D breast) was greater than 100 µM. The TGI (TK-10 renal) was 58.6 µM, the TGI (U251 CNS) was 33.6 µM and the TGI (UACC-257 melanoma) was greater than 100 µM. The TGI (UO-31 renal) was greater than 100 µM.
